Assay results reported in article PMC10408569, “Recruitment of hexahydroquinoline as anticancer scaffold targeting inhibition of wild and mutants EGFR (EGFR^WT, EGFR^T790M, and EGFR^L858R)” (Journal of Enzyme Inhibition and Medicinal Chemistry, 2023).

Key:
HOP-92 = assay: NCI-60 anticancer screening (SRB); assay type: cell-based; conditions: Homo sapiens; HOP-92, NSC lung cancer; one dose 10 μM; read-out: Growth Inhibition Percentage (GI %)
SR = assay: NCI-60 anticancer screening (SRB); assay type: cell-based; conditions: Homo sapiens, leukemia, one dose 10 μM, read-out: Growth Inhibition Percentage (GI %)
K-562 = assay: NCI-60 anticancer screening (SRB); assay type: cell-based; conditions: Homo sapiens, K562; K-562, leukemia; one dose 10 μM; read-out: Growth Inhibition Percentage (GI %)
OVCAR-8 = assay: NCI-60 anticancer screening (SRB); assay type: cell-based; conditions: Homo sapiens; OVCAR-8, ovarian cancer; one dose 10 μM; read-out: Growth Inhibition Percentage (GI %)
IGROV1 = assay: NCI-60 anticancer screening (SRB); assay type: cell-based; conditions: Homo sapiens, IGROV-1; IGROV1, ovarian cancer; one dose 10 μM; read-out: Growth Inhibition Percentage (GI %)
COLO 205 = assay: NCI-60 anticancer screening (SRB); assay type: cell-based; conditions: Homo sapiens; COLO 205, colon cancer; one dose 10 μM; read-out: Growth Inhibition Percentage (GI %)
HCT-116 = assay: NCI-60 anticancer screening (SRB); assay type: cell-based; conditions: Homo sapiens; HCT-116, colon cancer; one dose 10 μM; read-out: Growth Inhibition Percentage (GI %)
SK-MEL-2 = assay: NCI-60 anticancer screening (SRB); assay type: cell-based; conditions: Homo sapiens; SK-MEL-2, melanoma; one dose 10 μM; read-out: Growth Inhibition Percentage (GI %)
OVCAR-3 = assay: NCI-60 anticancer screening (SRB); assay type: cell-based; conditions: Homo sapiens; OVCAR-3, ovarian cancer; one dose 10 μM; read-out: Growth Inhibition Percentage (GI %)
HS 578T = assay: NCI-60 anticancer screening (SRB); assay type: cell-based; conditions: Homo sapiens; HS 578T, breast cancer; one dose 10 μM; read-out: Growth Inhibition Percentage (GI %)
MDA-MB-468 = assay: NCI-60 anticancer screening (SRB); assay type: cell-based; conditions: Homo sapiens; MDA-MB-468, breast cancer; one dose 10 μM; read-out: Growth Inhibition Percentage (GI %)
MCF7 = assay: NCI-60 anticancer screening (SRB); assay type: cell-based; conditions: Homo sapiens; MCF7, breast cancer; one dose 10 μM; read-out: Growth Inhibition Percentage (GI %)
SW-620 = assay: NCI-60 anticancer screening (SRB); assay type: cell-based; conditions: Homo sapiens; SW-620, colon cancer; one dose 10 μM; read-out: Growth Inhibition Percentage (GI %)
MOLT-4 = assay: NCI-60 anticancer screening (SRB); assay type: cell-based; conditions: Homo sapiens; MOLT-4, leukemia; one dose 10 μM; read-out: Growth Inhibition Percentage (GI %)
UACC-257 = assay: NCI-60 anticancer screening (SRB); assay type: cell-based; conditions: Homo sapiens; UACC-257, melanoma; one dose 10 μM; read-out: Growth Inhibition Percentage (GI %)
CCRF-CEM = assay: NCI-60 anticancer screening (SRB); assay type: cell-based; conditions: Homo sapiens, leukemia, one dose 10 μM, read-out: Growth Inhibition Percentage (GI %)
BT-549 = assay: NCI-60 anticancer screening (SRB); assay type: cell-based; conditions: Homo sapiens; BT-549, breast cancer; one dose 10 μM; read-out: Growth Inhibition Percentage (GI %)
OVCAR-5 = assay: NCI-60 anticancer screening (SRB); assay type: cell-based; conditions: Homo sapiens; OVCAR-5, ovarian cancer; one dose 10 μM; read-out: Growth Inhibition Percentage (GI %)
LOX IMVI = assay: NCI-60 anticancer screening (SRB); assay type: cell-based; conditions: Homo sapiens, melanoma, one dose 10 μM, read-out: Growth Inhibition Percentage (GI %)
SK-OV-3 = assay: NCI-60 anticancer screening (SRB); assay type: cell-based; conditions: Homo sapiens; SK-OV-3, ovarian cancer; one dose 10 μM; read-out: Growth Inhibition Percentage (GI %)
NCI-H226 = assay: NCI-60 anticancer screening (SRB); assay type: cell-based; conditions: Homo sapiens; NCI-H226, NSC lung cancer; one dose 10 μM; read-out: Growth Inhibition Percentage (GI %)
A498 = assay: NCI-60 anticancer screening (SRB); assay type: cell-based; conditions: Homo sapiens; A498, renal cancer; one dose 10 μM; read-out: Growth Inhibition Percentage (GI %)
MALME-3M = assay: NCI-60 anticancer screening (SRB); assay type: cell-based; conditions: Homo sapiens, melanoma, one dose 10 μM, read-out: Growth Inhibition Percentage (GI %)
U251 = assay: NCI-60 anticancer screening (SRB); assay type: cell-based; conditions: Homo sapiens, U-251; U251, CNS cancer; one dose 10 μM; read-out: Growth Inhibition Percentage (GI %)
UO-31 = assay: NCI-60 anticancer screening (SRB); assay type: cell-based; conditions: Homo sapiens; UO-31, renal cancer; one dose 10 μM; read-out: Growth Inhibition Percentage (GI %)
OVCAR-4 = assay: NCI-60 anticancer screening (SRB); assay type: cell-based; conditions: Homo sapiens; OVCAR-4, ovarian cancer; one dose 10 μM; read-out: Growth Inhibition Percentage (GI %)
ACHN = assay: NCI-60 anticancer screening (SRB); assay type: cell-based; conditions: Homo sapiens, renal cancer, one dose 10 μM, read-out: Growth Inhibition Percentage (GI %)
PC-3 = assay: NCI-60 anticancer screening (SRB); assay type: cell-based; conditions: Homo sapiens; PC-3, prostate cancer; one dose 10 μM; read-out: Growth Inhibition Percentage (GI %)

Row | Compound | inhibition at 10 µM (HOP-92) [%] | inhibition at 10 µM (SR) [%] | inhibition at 10 µM (K-562) [%] | inhibition at 10 µM (OVCAR-8) [%] | inhibition at 10 µM (IGROV1) [%] | inhibition at 10 µM (COLO 205) [%] | inhibition at 10 µM (HCT-116) [%] | melting point [°C] | inhibition at 10 µM (SK-MEL-2) [%] | inhibition at 10 µM (OVCAR-3) [%] | inhibition at 10 µM (HS 578T) [%] | inhibition at 10 µM (MDA-MB-468) [%] | inhibition at 10 µM (MCF7) [%] | inhibition at 10 µM (SW-620) [%] | inhibition at 10 µM (MOLT-4) [%] | inhibition at 10 µM (UACC-257) [%] | inhibition at 10 µM (CCRF-CEM) [%] | inhibition at 10 µM (BT-549) [%] | inhibition at 10 µM (OVCAR-5) [%] | inhibition at 10 µM (LOX IMVI) [%] | further results
1 | CCOC(=O)C1=C(N)N(c2ccc(Cl)cc2)C2=C(C(=O)CC(C)(C)C2)C1c1ccc([N+](=O)[O-])cc1 (racemic) [8k, (±)-Ethyl2-amino-1–(4-chlorophenyl)-7,7-dimethyl-4–(4-nitrophenyl)-5-oxo-1,4,5,6,7,8-hexahydroquinoline-3-carboxylate] | < 10 | 32 | 26 | 12 | < 10 | < 10 | 34 | 198 to 200 | 19 | < 10 | < 10 | 18 | 19 | < 10 | 27 | < 10 | < 10 | < 10 | < 10 | 21 | inhibition at 10 µM (SK-OV-3): < 10%; inhibition at 10 µM (NCI-H226): 15%; inhibition at 10 µM (A498): < 10%; inhibition at 10 µM (MALME-3M): < 10%; inhibition at 10 µM (U251): < 10%; inhibition at 10 µM (UO-31): 32%; inhibition at 10 µM (OVCAR-4): < 10%; inhibition at 10 µM (ACHN): 12%; inhibition at 10 µM (PC-3): 26%
2 | CCOC(=O)C1=C(N)N(c2ccccc2)C2=C(C(=O)CC(C)(C)C2)C1c1ccc(N2CCOCC2)cc1 (racemic) [8l, (±)-Ethyl 2-amino-7,7-dimethyl-4-[4-(morpholin-4-yl)phenyl]-5-oxo-1-phenyl-1,4,5,6,7,8-hexahydroquinoline-3-carboxylate] | 12 | 16 | < 10 | < 10 | < 10 | < 10 | < 10 | 193 to 195 | < 10 | < 10 | < 10 | < 10 | < 10 | < 10 | < 10 | < 10 | < 10 | < 10 | < 10 | < 10 | inhibition at 10 µM (SK-OV-3): < 10%; inhibition at 10 µM (NCI-H226): < 10%; inhibition at 10 µM (A498): < 10%; inhibition at 10 µM (MALME-3M): < 10%; inhibition at 10 µM (U251): < 10%; inhibition at 10 µM (UO-31): < 10%; inhibition at 10 µM (OVCAR-4): < 10%; inhibition at 10 µM (ACHN): < 10%; inhibition at 10 µM (PC-3): < 10%
3 | CCOC(=O)C1=C(N)N(c2ccc(C)cc2)C2=C(C(=O)CC(C)(C)C2)C1c1ccccc1Cl (racemic) [6b, (±)-Ethyl 2-amino-4–(2-chlorophenyl)-7,7-dimethyl-1–(4-methylphenyl)-5-oxo-1,4,5,6,7,8-hexahydroquinoline-3-carboxylate] | < 10 | < 10 | < 10 | 20 | < 10 | 19 | 17 | 240 to 242 | < 10 | 17 | < 10 | 20 | 32 | 19 | < 10 | < 10 | < 10 | 11 | < 10 | < 10 | inhibition at 10 µM (SK-OV-3): < 10%; inhibition at 10 µM (NCI-H226): < 10%; inhibition at 10 µM (A498): < 10%; inhibition at 10 µM (MALME-3M): < 10%; inhibition at 10 µM (U251): < 10%; inhibition at 10 µM (UO-31): 19%; inhibition at 10 µM (OVCAR-4): < 10%; inhibition at 10 µM (ACHN): < 10%; inhibition at 10 µM (PC-3): 43%
4 | CCOC(=O)C1=C(N)N(c2ccc(C)cc2)C2=C(C(=O)CC(C)(C)C2)C1c1ccc(OC)cc1 (racemic) [8g, (±)-Ethyl 2-amino-4–(4-methoxyphenyl)-7,7-dimethyl-1–(4-methylphenyl)-5-oxo-1,4,5,6,7,8-hexahydroquinoline-3-carboxylate] | < 10 | < 10 | < 10 | < 10 | < 10 | < 10 | < 10 | 181 to 183 | < 10 | < 10 | < 10 | < 10 | < 10 | < 10 | < 10 | < 10 | < 10 | < 10 | < 10 | < 10 | inhibition at 10 µM (SK-OV-3): < 10%; inhibition at 10 µM (NCI-H226): < 10%; inhibition at 10 µM (A498): < 10%; inhibition at 10 µM (MALME-3M): < 10%; inhibition at 10 µM (U251): < 10%; inhibition at 10 µM (UO-31): < 10%; inhibition at 10 µM (OVCAR-4): < 10%; inhibition at 10 µM (ACHN): < 10%; inhibition at 10 µM (PC-3): < 10%
5 | CCOC(=O)C1=C(N)N(c2ccc(Cl)cc2)C2=C(C(=O)CC(C)(C)C2)C1c1ccc(N2CCOCC2)cc1 (racemic) [8m, (±)-Ethyl 2-amino-1–(4-chlorophenyl)-7,7-dimethyl-4-[4-(morpholin-4-yl)phenyl]-5-oxo-1,4,5,6,7,8-hexahydroquinoline-3-carboxylate] | < 10 | < 10 | < 10 | < 10 | < 10 | < 10 | < 10 | 175 to 177 | < 10 | < 10 | < 10 | 16 | < 10 | < 10 | < 10 | < 10 | < 10 | 76 | < 10 | < 10 | inhibition at 10 µM (SK-OV-3): < 10%; inhibition at 10 µM (NCI-H226): < 10%; inhibition at 10 µM (A498): < 10%; inhibition at 10 µM (MALME-3M): < 10%; inhibition at 10 µM (U251): 12%; inhibition at 10 µM (UO-31): 15%; inhibition at 10 µM (OVCAR-4): < 10%; inhibition at 10 µM (ACHN): < 10%; inhibition at 10 µM (PC-3): < 10%
